The source of these data is patent US20030232902A1, “Ink composition and ink - jet recording method” (FUJI PHOTO FILM CO., LTD., priority 2002, published 2003).

The nature of data set [1]: Solubility of auxiliary solvent in water at 25° C. The note with it: for Solubility of auxiliary solvent in water at 25° C.: in 100 g of water at 25° C.; for Auxiliary solvent Water solubility: Table 1.
Data set [2] is described as follows: Water solubility of high-boiling point organic solvent. Conditions: 25° C. In kind it is physicochemical.
Source text: Thus, the water solubility is preferably 4 g or below, more preferably 3 g or below, and still more preferably 2 g or below and most preferably 1 g or below.
The nature of data set [3]: Specific gravity of high-boiling point organic solvent. In kind it is physicochemical.

As to 2-ethylene acetate [AS-4], the “Solubility of auxiliary solvent in water at 25° C.” value (“Solubility of auxiliary solvent” for short) in data set [1] is 20 g. The same measure, in the same setting: under `CCC(CC)COC(C)=O` [AS-3, 2-ethylbutyl acetate] stands below 1 g. `CCOC(=O)CC` [AS-7, ethyl propionate]: the “Solubility of auxiliary solvent” value in data set [1] turned out to be 2 g. For `O=P(OCCCl)(OCCCl)OCCCl` [SPX-3, (ClCH2CH2O)3—P═O], in data set [2], the “High-boiling point organic solvent Water Solubility” value is listed as 4.64 g. Moreover, the “High-boiling point organic solvent Specific Gravity” value in data set [3] is reported as 1.41.

With `CCOCCOC(C)=O` [AS-5, 2-ethoxyethyl acetate], in data set [1], the “Solubility of auxiliary solvent” value turned out to be 25 g. As to `CCCCOCCOCCOC(C)=O` [AS-10, 2-(2-n-butoxyethoxy)ethyl acetate], in data set [1], the “Solubility of auxiliary solvent” value worked out at 2 g.

Consider `O=C1CCCCC1` [AS-11, cyclohexanone], for which the “Solubility of auxiliary solvent” value in data set [1] is recorded as 15 g. On to `CCCCOC(C)=O` [AS-6, butyl acetate], for which the “Solubility of auxiliary solvent” value in data set [1] is on record as 2 g. As for `CCOC(C)=O` [AS-1, ethyl acetate], in data set [1], the “Auxiliary solvent Water solubility” value is given as 8 g and the “Solubility of auxiliary solvent” value was 8 g. As for (ClCH2CHCHO)3—P═O [SPX-2], the “High-boiling point organic solvent Water Solubility” value in data set [2] is reported as 0.9 g. Also, the “High-boiling point organic solvent Specific Gravity” value in data set [3] is reported as 1.51. On to `CCCOC(C)=O` [AS-2, propyl acetate], for which, in data set [1], the “Auxiliary solvent Water solubility” value was 2 g and the “Solubility of auxiliary solvent” value is reported as 2 g. As for `CCCCCOP(=O)(OCCCCC)OCCCCC` [SPX-4, [(n)C5H11O]3—P═O], in data set [2], the “High-boiling point organic solvent Water Solubility” value is recorded as 4.5 g. The “High-boiling point organic solvent Specific Gravity” value in data set [3] turned out to be 0.94.
